Values of other authors as cited in patent US20150216918A1, “FERMENTED SOY NUTRITIONAL SUPPLEMENTS INCLUDING MUSHROOM COMPONENTS” (priority 2010, published 2015).

Tested on: tumor cells

CC(C)CCCCCCCCCCCC(=O)O [MDT-13, 13-methyl-tetradecanoic acid]
induction of apoptosis in tumor cells: induce apoptosis
